Results: patent EP0818464B1, “Methylsulfomycin l, a process for its production and its use” (HOECHST AKTIENGESELLSCHAFT, priority 1996, dated 1998)

Experiments:
Test in all cases: MIC by agar dilution method
Format in all cases: cell-based
S. epi. 109 = test system: S. epi. 109
Excerpt: (§1) The minimum inhibitory concentration (MIC) against different test strains, determined by agar dilution method in the known manner, are given in Table 2.

[1] = test system: Ent. faecium R-1 (V^R,T^R); details: Vancomycin resistant, Teicoplanin resistant
Excerpt: as §1

S. aureus 20240 = test system: S. aureus 20240
Excerpt: as §1

S. haemo. 712 (T^R) = details: Teicoplanin resistant
Excerpt: as §1

S. epi. 8 Schah = test system: S. epi. 8 Schah
Excerpt: as §1

S. aureus E 710 = test system: S. aureus E 710
Excerpt: as §1

S. aureus Brussels 810 = test system: S. aureus Brussels 810
Excerpt: as §1

[2] = test system: Ent. faecium P-1 (V^R,T^R); details: Vancomycin resistant, Teicoplanin resistant
Excerpt: as §1

S. epi. 5747 IIW = test system: S. epi. 5747 IIW
Excerpt: as §1

S. aureus 3066 = S. aureus 3066 (resistant to methicillin)
Excerpt: as §1

S. aureus Wein 12 = test system: S. aureus Wein 12
Excerpt: as §1

S. aureus E-88 = test system: S. aureus E-88
Excerpt: as §1

Escherichia coli 2231 = test system: Escherichia coli 2231
Excerpt: as §1

S. epi. 32965 = test system: S. epi. 32965
Excerpt: as §1

[3] = test system: Ent faecalis durans 4931 H
Excerpt: as §1

[4] = test system: Staphylococcus aureus 209P
Excerpt: as §1

S. epi. 825 (T^S) = details: Teicoplanin sensitive
Excerpt: as §1

Ent. hirae 55 = test system: Ent. hirae 55
Excerpt: as §1

Ent. faecium D-65 = test system: Ent. faecium D-65
Excerpt: as §1

[5] = test system: Ent. faecium P-2 (V^R,T^R); details: Vancomycin resistant, Teicoplanin resistant
Excerpt: as §1

[6] = test system: Ent. faecium R-2 (V^R,T^R); details: Vancomycin resistant, Teicoplanin resistant
Excerpt: as §1

[7] = test system: Enterococcus faecalis ATCC 29212
Excerpt: as §1

S. epi. 823 (T^R) = details: Teicoplanin resistant
Excerpt: as §1

S. aureus Wein 11 = test system: S. aureus Wein 11
Excerpt: as §1

S. aureus 20424 = test system: S. aureus 20424
Excerpt: as §1

Ent. faecalis 4045H = test system: Ent. faecalis 4045H
Excerpt: as §1

Ent. faecalis D-7F = test system: Ent. faecalis D-7F
Excerpt: as §1

S. haemo. 712 (T^S) = details: Teicoplanin sensitive
Excerpt: as §1

S. epi 6026 = test system: S. epi 6026
Excerpt: as §1

Ent. equinus (V^R,T^R) = details: Vancomycin resistant, Teicoplanin resistant
Excerpt: as §1

S. aureus Chantot 31153 = test system: S. aureus Chantot 31153
Excerpt: as §1

S. aureus Brussels 4115 = test system: S. aureus Brussels 4115
Excerpt: as §1

S. aureus E 712 = test system: S. aureus E 712
Excerpt: as §1

Substance: methylsulfomycin I
- MIC (S. epi. 109): 0.125 µg/mL
- MIC [1]: 0.125 µg/mL
- MIC (S. aureus 20240): 0.125 µg/mL
- MIC (S. haemo. 712 (T^R)): 0.125 µg/mL
- MIC (S. epi. 8 Schah): 0.125 µg/mL
- MIC (S. aureus E 710): 0.125 µg/mL
- MIC (S. aureus Brussels 810): 0.125 µg/mL
- MIC [2]: 0.125 µg/mL
- MIC (S. epi. 5747 IIW): 0.125 µg/mL
- MIC (S. aureus 3066): 0.125 µg/mL
- MIC (S. aureus Wein 12): 0.125 µg/mL
- MIC (S. aureus E-88): 0.125 µg/mL
- MIC (Escherichia coli 2231): > 100 µg/mL
- MIC (S. epi. 32965): 0.125 µg/mL
- MIC [3]: 0.125 µg/mL
- MIC [4]: 0.06 µg/mL
- MIC (S. epi. 825 (T^S)): 0.125 µg/mL
- MIC (Ent. hirae 55): 0.125 µg/mL
- MIC (Ent. faecium D-65): 0.125 µg/mL
- MIC [5]: 0.125 µg/mL
- MIC [6]: 0.125 µg/mL
- MIC [7]: 0.125 µg/mL
- MIC (S. epi. 823 (T^R)): 0.125 µg/mL
- MIC (S. aureus Wein 11): 0.125 µg/mL
- MIC (S. aureus 20424): 0.125 µg/mL
- MIC (Ent. faecalis 4045H): 0.125 µg/mL
- MIC (Ent. faecalis D-7F): 0.125 µg/mL
- MIC (S. haemo. 712 (T^S)): 0.125 µg/mL
- MIC (S. epi 6026): 0.125 µg/mL
- MIC (Ent. equinus (V^R,T^R)): 0.125 µg/mL
- MIC (S. aureus Chantot 31153): 0.125 µg/mL
- MIC (S. aureus Brussels 4115): 0.125 µg/mL
- MIC (S. aureus E 712): 0.125 µg/mL
